Measured values from ChEMBL document CHEMBL1157210, “Neurosteroid analogues. 12. Potent enhancement of GABA-mediated chloride currents at GABAA receptors by ent-androgens” (Eur J Med Chem, 2008).

What was measured:
Rattus norvegicus [1] = organism: Rattus norvegicus; assay: Activity at rat GABAA alpha-1-beta-2-gamma-2L receptor expressed in Xenopus laevis expressed in assessed as ratio of current in treated to non-treated oocyte at 10 uM by electrophysiology
Xenopus laevis [2] = assay: Anesthetic effect in Xenopus laevis assessed as loss of righting response; type: functional, organism-based
Rattus norvegicus [3] = organism: Rattus norvegicus; assay: Activity at rat GABAA alpha-1-beta-2-gamma-2L receptor expressed in Xenopus laevis expressed in assessed as ratio of current in treated to non-treated oocyte at 1 uM by electrophysiology
Rattus norvegicus [4] = organism: Rattus norvegicus; assay: Activity at rat GABAA alpha-1-beta-2-gamma-2L receptor expressed in Xenopus laevis assessed as ratio of current in drug-treated to GABA-treated oocyte at 10 uM by electrophysiology
[5] = Displacement of […] from GABAA receptor in rat brain; type: tissue-based
Rattus norvegicus [6] = organism: Rattus norvegicus; assay: Activity at rat GABAA alpha-1-beta-2-gamma-2L receptor expressed in Xenopus laevis assessed as ratio of current in treated to non-treated oocyte at 0.1 uM by electrophysiology
Xenopus laevis [7] = assay: Anesthetic effect in Xenopus laevis assessed as loss of swimming response; type: functional, organism-based

Row | SMILES | Ratio (Rattus norvegicus [1]) | EC50 (Xenopus laevis [2]) | Ratio (Rattus norvegicus [3]) | Ratio (Rattus norvegicus [4]) | IC50 [5] | Ratio (Rattus norvegicus [6]) | EC50 (Xenopus laevis [7])
1 | C[C@]12CC[C@@H](O)C[C@@H]1CC[C@@H]1[C@@H]2CC[C@]2(C)C(=O)CC[C@@H]12 [ANDROSTERONE] | 5.44 | 3380 nM | 1.41 | 0.02 | 410 nM | 0.97 | 
2 | C[C@@]12CC[C@H](O)C[C@@H]1CC[C@@H]1[C@@H]2CC[C@@]2(C)C(=O)CC[C@@H]12 | 14.1 | 1970 nM | 2.34 | 0.09 | 380 nM | 1.4 | 8900 nM
3 | CC(=O)[C@@H]1CC[C@H]2[C@@H]3CC[C@@H]4C[C@@H](O)CC[C@@]4(C)[C@H]3CC[C@@]12C | 1.17 | 970 nM | 0.92 | 0.02 | 1910 nM | 0.95 | > 5000 nM
4 | CC(=O)[C@H]1CC[C@H]2[C@@H]3CC[C@H]4C[C@H](O)CC[C@]4(C)[C@H]3CC[C@]12C [BREXANOLONE] | 9.65 | 420 nM | 3.89 | 0.37 | 74 nM | 1.26 | 5500 nM
5 | CC(=O)[C@H]1CC[C@H]2[C@@H]3CC[C@@H]4C[C@H](O)CC[C@]4(C)[C@H]3CC[C@]12C [ELTANOLONE] | 9.77 | 60 nM | 2.82 | 0.06 | 71 nM | 1.2 | 300 nM
6 | CC(=O)[C@@H]1CC[C@H]2[C@@H]3CC[C@H]4C[C@@H](O)CC[C@@]4(C)[C@H]3CC[C@@]12C | 7.92 | 70 nM | 2.82 | 0.06 | 280 nM | 1.28 | 890 nM
7 | C[C@]12CC[C@@H](O)C[C@H]1CC[C@@H]1[C@@H]2CC[C@]2(C)C(=O)CC[C@@H]12 [ETIOCHOLANOLONE] | 1.39 |  | 0.87 | 0 | 4150 nM | 0.89 | 
8 | C[C@@]12CC[C@H](O)C[C@@H]1CC[C@@H]1[C@@H]2CC[C@]2(C)[C@H]1CC[C@]21CO1 | 20.8 | 1730 nM | 10.5 | 0.12 | 390 nM | 1.86 | 2760 nM
9 | C[C@@]12CC[C@H](O)C[C@H]1CC[C@@H]1[C@@H]2CC[C@]2(C)[C@H]1CC[C@]21CO1 | 26.3 | 1080 nM | 15.9 | 0.1 | 470 nM | 2.62 | 2710 nM
10 | C[C@]12CC[C@@H](O)C[C@@H]1CC[C@@H]1[C@@H]2CC[C@@]2(C)[C@H]1CC[C@@]21CO1 | 33.7 | 1350 nM | 21.9 | 0.22 | 110 nM | 3.11 | 2760 nM
11 | C[C@@]12CC[C@H](O)C[C@H]1CC[C@@H]1[C@@H]2CC[C@@]2(C)C(=O)CC[C@@H]12 | 18.9 | 1420 nM | 3.66 | 0.03 | 310 nM | 1.27 | 5480 nM
12 | C[C@]12CC[C@@H](O)C[C@H]1CC[C@@H]1[C@@H]2CC[C@@]2(C)[C@H]1CC[C@@]21CO1 | 25.4 | 990 nM | 5.17 | 0.03 | 220 nM | 1.28 | 1730 nM
